Results as given in patent US20260055113A1, “HETEROARYL COMPOUNDS FOR THE TREATMENT OF CANCER” (Hoffmann-La Roche Inc., priority 2022, published 2026).

Columns and labels:
[1] = Human microsomal stability assay; type: in vitro ADME; conditions: human liver microsomes 0.5 mg/mL, 1 μM test compound, 37° C., pH 7.4
Experimental: Human liver microsomes (Cat. NO.: 452117, Corning, USA) were preincubated with test compound for 10 minutes at 37° C. in 100 mM potassium phosphate buffer, pH 7.4. The reactions were initiated by adding NADPH regenerating system. The final incubation mixtures contained 1 μM test compound, 0.5 mg/mL liver microsomal protein, 1 mM MgCl2, 1 mM NADP, 1 unit/mL isocitric dehydrogenase and 6 mM isocitric acid in 100 mM potassium phosphate buffer, pH 7.4. After incubation times of 0, 3, 6, 9, 15 and 30 minutes at 37° C., 300 μL of cold ACN (including internal standard) was added to 100 μL incubation mixture to terminate the reaction. Following precipitation and centrifugation, 100 μL supernatant will be taken out and added 300 μL water. The amount of compound remaining in the samples was determined by LC-MS/MS. Controls of no NADPH regenerating system at zero and 30 minutes were also prepared and analyzed. The results were categorized as: low (<7.0 mL/min/kg), medium (7.0-16.2 mL/min/kg) and high (16.2-23.2 mL/min/kg).

CD73 [2] = target: T1, CD73 (Homo sapiens (Human), UniProt P21589); assay: CD73 cellular assay (MDA-MB-231 cells, malachite readout); type: cell-based; conditions: AMP substrate, 45 min, read-out: Cellular IC50 against CD73
Experimental: After incubating with compounds for 30 minutes, 40 μL of AMP working solution (200 μM AMP in assay buffer) was added into each well in the assay plate. The assay plate was then incubated in a 5% CO2 incubator (Thermo Fisher Scientific) at 37° C. for 45 min. After the reaction was completed, 50 μL of the supernatants was collected and transferred into a new 384 well plate. 10 μL of Malachite A was added to each well in the assay plate and incubated for 10 minutes. 10 μL of Malachite B was then added to each corresponding well of the plate and incubated for 30 minutes.
Target sequence in this assay (P21589 27-574): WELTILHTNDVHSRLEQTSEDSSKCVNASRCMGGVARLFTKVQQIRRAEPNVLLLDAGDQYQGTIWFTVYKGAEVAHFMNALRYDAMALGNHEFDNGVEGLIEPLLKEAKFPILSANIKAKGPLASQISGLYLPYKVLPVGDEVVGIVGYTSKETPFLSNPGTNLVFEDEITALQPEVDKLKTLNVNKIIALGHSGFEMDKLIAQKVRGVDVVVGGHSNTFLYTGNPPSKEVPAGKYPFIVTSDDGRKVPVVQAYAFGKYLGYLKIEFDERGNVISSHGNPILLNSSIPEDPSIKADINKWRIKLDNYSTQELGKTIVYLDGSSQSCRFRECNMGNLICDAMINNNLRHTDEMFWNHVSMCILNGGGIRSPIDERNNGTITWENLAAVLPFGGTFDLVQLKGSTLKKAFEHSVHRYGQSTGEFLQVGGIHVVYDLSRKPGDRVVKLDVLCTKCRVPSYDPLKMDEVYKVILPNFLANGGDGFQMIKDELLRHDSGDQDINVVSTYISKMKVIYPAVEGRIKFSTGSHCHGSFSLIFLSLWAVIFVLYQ

CD73 [3] = target: T1, CD73; assay: CD73 potency assay using LC/MS (enzymatic); type: biochemical; conditions: 0.05 nM recombinant CD73 protein, LC/MS adenosine readout; read-out: Enzymatic IC50 against CD73
Experimental: The purpose of this assay is to identify and characterize inhibitors of CD73 enzymatic activity. […] 10 μL of enzyme working solution (containing 0.05 nM recombinant CD73 protein, 10 mM Tris pH 7.5, 100 mM NaCl, 0.01% BSA, 0.2 mM Octyl glucoside) was added to the assay plate and incubated with compounds for 15 minutes at room temperature. After adding 15 μL of AMP working solution (Containing 10 mM Tris pH 7.5, 100 mM NaCl, 0.01% BSA, 0.2 mM Octyl glucoside, with 1000 μM of AMP final concentration) and incubate for 10 min at room temperature. […] After centrifugation, 75 μL of the mixture was transferred to a new 384-well plate for LC/MS analysis.
Samples from the 384-well plates, were loaded onto an autosampler deck, then injected with ADDA-LC-MS/MS. The aqueous mobile phase is 0.1% formic acid in water. The organic mobile phase is 0.1% formic acid in acetonitrile. Flow rate is maintained at 0.8 mL/minute using Shimadzu pumps. The column is ACE 5 Phenyl, 50×2.1 mm. The analysis was performed on a SCIEX triple quadrupole mass spectrometer operating in positive ion mode. The effluent from the HPLC column was directly introduced into the electrospray ionization (ESI). Multiple reaction monitoring (MRM) is used to determine analyte and internal standard (IS) responses. […] The data is calculated using the peak area ratio (PAR) semi-quantitative method.
Target sequence in this assay (P21589 27-574, species assumed): as the sequence (P21589 27-574) above

CD8+ T cells = assay: T cell proliferation assay, CD8+ T cells; conditions: read-out: CD8+ T cell proliferation EC50; rescue of proliferation under high AMP condition (200 μM AMP), 72 hours
Experimental: (§1) The purpose of this assay is to characterize the potency of inhibitors of CD73 in rescuing adenosine-mediated inhibition of T cell proliferation. CD4+ or CD8+ T cells were isolated from peripheral blood mononuclear cells (PBMCs, HemaCare) by immunomagnetic negative selection using EasySep™ Isolation Kit ([sequence] Technologies) following the supplier's protocol. CD4+ or CD8+ T cells were pelleted by centrifugation at 300 gravitational force (g) for 5 minutes at room temperature and re-suspended in PBS. CellTrace™ Violet staining solution (Invitrogen) was added at 1:5,000 and incubated at 37° C. for 20 minutes, protected from light. […] Cells were then pelleted by centrifugation at 300 g for 5 minutes at room temperature and re-suspended in fresh, pre-warmed complete culture medium. 50 μL of cells were seeded per well in 96 well u-bottom plates. 50 μL of CD3/CD28 beads-containing medium and 50 μL of media containing compounds were added into cells. 50 μL of media containing AMP and EHNA hydrochloride (Sigma-Aldrich) was added into cells at 200 μM and 5 μM final concentration, respectively. Cells were incubated for 72 hours at 37° C. in a 5% CO2 incubator. 200 μL of PBS was then added to each well and cells were centrifuged at 300 g, 4° C. for 10 minutes. […] The supernatant was discarded and cells were re-suspended in 60 μL of cell staining buffer and analyzed on a flow cytometer.

CD4+ T cells = assay: T cell proliferation assay, CD4+ T cells; conditions: read-out: CD4+ T cell proliferation EC50; rescue of proliferation under high AMP condition (200 μM AMP), 72 hours
Experimental: as §1

Compound	CL (h) [1] [mL/min/kg]	IC50 (CD73 [2]) [nM]	IC50 (CD73 [3]) [nM]	EC50 (CD8+ T cells) [nM]	EC50 (CD4+ T cells) [nM]
Cn1nc(O[C@H](c2ccccn2)C(F)(F)F)c2cc(-c3c[nH]c(=O)[nH]c3=O)nnc21 [Example 29A, 5-[1-methyl-3-[(1R)-2,2,2-trifluoro-1-(2-pyridyl)ethoxy]pyrazolo[3,4-c]pyridazin-5-yl]-1H-pyrimidine-2,4-dione]	6.15	3.4	0.38		
Cn1nc(O[C@H](c2ccccc2)C(F)(F)F)c2cc(-c3c[nH]c(=O)[nH]c3=O)nnc21 [Example 30A, 5-[1-methyl-3-[(1R)-2,2,2-trifluoro-1-phenyl-ethoxy]pyrazolo[3,4-c]pyridazin-5-yl]-1H-pyrimidine-2,4-dione]	6.15	1.6	0.15		
Cn1nc(C2CCC2)c2cc(-c3c[nH]c(=O)[nH]c3=O)nnc21 [Example 39, 5-(3-cyclobutyl-1-methyl-pyrazolo[3,4-c]pyridazin-5-yl)-1H-pyrimidine-2,4-dione]	6.15	3.5	0.7		
C[C@@H](c1ccccc1)N(C)c1nn(C)c2nnc(-c3c[nH]c(=O)[nH]c3=O)cc12 [Example 38, 5-[1-methyl-3-[methyl-[(1S)-1-phenylethyl]amino]pyrazolo[3,4-c]pyridazin-5-yl]-1H-pyrimidine-2,4-dione]	9.3	1.6	0.25		
Cn1nc(-c2ccnn2Cc2ccccc2)c2cc(-c3c[nH]c(=O)[nH]c3=O)nnc21 [Example 7, 5-[3-(2-benzylpyrazol-3-yl)-1-methyl-pyrazolo[3,4-c]pyridazin-5-yl]-1H-pyrimidine-2,4-dione]	9.85	11.4	1.94		
Cc1ccnc([C@H](C)Oc2nn(C)c3nnc(-c4c[nH]c(=O)[nH]c4=O)cc23)c1 [Example 42, 5-[1-methyl-3-[(1S)-1-(4-methyl-2-pyridyl)ethoxy]pyrazolo[3,4-c]pyridazin-5-yl]-1H-pyrimidine-2,4-dione]	7.78	4.1			
C[C@H](Oc1nn(C)c2nnc(-c3c[nH]c(=O)[nH]c3=O)cc12)c1ccccc1 [Example 27, 5-[1-methyl-3-[(1S)-1-phenylethoxy]pyrazolo[3,4-c]pyridazin-5-yl]-1H-pyrimidine-2,4-dione]	6.15			3.84	4.3
CC(Oc1nn(C)c2nnc(-c3c[nH]c(=O)[nH]c3=O)cc12)c1ccccn1 (stereo not drawn) [Example 17, 5-[1-methyl-3-[1-(2-pyridyl)ethoxy]pyrazolo[3,4-c]pyridazin-5-yl]-1H-pyrimidine-2,4-dione]	6.15	3.7			
O=c1[nH]cc(-c2cc3c(C4CCC4)noc3nn2)c(=O)[nH]1 [Example 46, 5-(3-cyclobutylisoxazolo[5,4-c]pyridazin-5-yl)-1H-pyrimidine-2,4-dione]		10.4	2		
CC(Oc1nn(C)c2nnc(-c3c[nH]c(=O)[nH]c3=O)cc12)c1cccc(C(F)(F)F)c1 (stereo not drawn) [Example 20, 5-[1-methyl-3-[1-[3-(trifluoromethyl)phenyl]ethoxy]pyrazolo[3,4-c]pyridazin-5-yl]-1H-pyrimidine-2,4-dione]	6.36	6.9			
CC(C)Oc1nn(C)c2nnc(-c3c[nH]c(=O)[nH]c3=O)cc12 [Example 8, 5-(3-isopropoxy-1-methyl-pyrazolo[3,4-c]pyridazin-5-yl)-1H-pyrimidine-2,4-dione]		13.3	3.88		
Cc1cnc(C(C)Oc2nn(C)c3nnc(-c4c[nH]c(=O)[nH]c4=O)cc23)s1 (stereo not drawn) [Example 22, 5-[1-methyl-3-[1-(5-methylthiazol-2-yl)ethoxy]pyrazolo[3,4-c]pyridazin-5-yl]-1H-pyrimidine-2,4-dione]	8.14	3.9			
C[C@H](Nc1nn(C)c2nnc(-c3c[nH]c(=O)[nH]c3=O)cc12)c1ccccc1 [Example 37, 5-[1-methyl-3-[[(1S)-1-phenylethyl]amino]pyrazolo[3,4-c]pyridazin-5-yl]-1H-pyrimidine-2,4-dione]	6.15	4			
Cn1nc(C2CC2)c2cc(-c3c[nH]c(=O)[nH]c3=O)nnc21 [Example 2, 5-(3-cyclopropyl-1-methyl-pyrazolo[3,4-c]pyridazin-5-yl)-1H-pyrimidine-2,4-dione]	8.52	10.2	0.89		
Cc1nc(C(C)Oc2nn(C)c3nnc(-c4c[nH]c(=O)[nH]c4=O)cc23)cs1 (stereo not drawn) [Example 21, 5-[1-methyl-3-[1-(2-methylthiazol-4-yl)ethoxy]pyrazolo[3,4-c]pyridazin-5-yl]-1H-pyrimidine-2,4-dione]	6.32	4.6	0.65		
C[C@H](Oc1nn(C)c2nnc(-c3c[nH]c(=O)[nH]c3=O)cc12)c1cccc(Cl)n1 [Example 44, 5-[3-[(1S)-1-(6-chloro-2-pyridyl)ethoxy]-1-methyl-pyrazolo[3,4-c]pyridazin-5-yl]-1H-pyrimidine-2,4-dione]	6.15	2.3			
CC(Oc1nn(C)c2nnc(-c3c[nH]c(=O)[nH]c3=O)cc12)c1ccc(F)cc1 (stereo not drawn) [Example 16, 5-[3-[1-(4-fluorophenyl)ethoxy]-1-methyl-pyrazolo[3,4-c]pyridazin-5-yl]-1H-pyrimidine-2,4-dione]	6.15	3.5			
CC(Oc1nn(C)c2nnc(-c3c[nH]c(=O)[nH]c3=O)cc12)c1cccc(C#N)c1 (stereo not drawn) [Example 11, 3-[1-[5-(2,4-dioxo-1H-pyrimidin-5-yl)-1-methyl-pyrazolo[3,4-c]pyridazin-3-yl]oxyethyl]benzonitrile]	6.15	2.9			
CC(Oc1nn(C)c2nnc(-c3c[nH]c(=O)[nH]c3=O)cc12)c1ccnn1C (stereo not drawn) [Example 24, 5-[1-methyl-3-[1-(2-methylpyrazol-3-yl)ethoxy]pyrazolo[3,4-c]pyridazin-5-yl]-1H-pyrimidine-2,4-dione]	6.26	19.6			
C[C@H](Oc1nn(C)c2nnc(-c3c[nH]c(=O)[nH]c3=O)cc12)c1ccccn1 [Example 26, 5-[1-methyl-3-[(1S)-1-(2-pyridyl)ethoxy]pyrazolo[3,4-c]pyridazin-5-yl]-1H-pyrimidine-2,4-dione]	6.15	2.7	0.33	3.9	5.6
CN(c1nn(C)c2nnc(-c3c[nH]c(=O)[nH]c3=O)cc12)C1CCCC1 [Example 36, 5-[3-[cyclopentyl(methyl)amino]-1-methyl-pyrazolo[3,4-c]pyridazin-5-yl]-1H-pyrimidine-2,4-dione]	6.15	8.6	2.23		
